The results in this text go back to patent publication US7803764B2, “Amphipathic glycopeptides” (The Arizona Board of Regents on Behalf of the University of …, priority 2004, dated 2010).

The target of one data set is δ opioid receptor (Homo sapiens, UniProt P41143). Kind of data set: opioid receptor binding, δ receptor.
Data set [1] is described as follows: helicity by circular dichroism. The format is physicochemical. To be noted: for % α-helicity: CD, SDS micelles (30 mM), pH = 7.0, 18° C. The protocol:
Circular Dichroism. All of the circular dichroism experiments were carried out on Aviv Associates model 60DS using an Endcal Model RTE4DD water circulator as a temperature-control vehicle. The instrument was calibrated by using d-10-camphorsulphonic acid. The spectra were recorded between 200 and 250 nm by using the continuous mode with a 1.5 nm bandwidth, a three second response and a scan step of 0.5 nm in a cell with a path length of 0.1 cm. Three or five scans were accumulated and averaged for each spectrum. Glycopeptide stock solutions were prepared by weighing the required amount, using Cahn/Ventron Instruments Model 21 automatic analytical electrobalance, to make 1 mL of a 0.5-1.0 mM solution and the pH was adjusted to the desired value. Samples were prepared by diluting the stock solution to 70-80 μM. All observed spectra were baseline-subtracted and smoothed by adjacent average of 5 points using Microcal Origin Ver. 5.0 software (Microcal Software Inc, USA). The molar ellipticities were determined using the formula [θ]=[θ]obs·(MRW)/10·l·C, where [θ]obs observed ellipticity in millidegrees, MRW is the mean residue weight, l is the cell path length in centimeters and C is the glycopeptide concentration in mg/mL. The percent α-helicity was determined by using the formula % helix=[θ]n→π*/−40,000 (1−2.5/n)·100, where n represents the number of amide bonds (including the C-terminal amide) in the glycopeptide and [θ]n→π** is molar ellipticity of n→π* transition band at 222 nm.^55
Conformational Analysis by CD. Circular dichroism (CD) is a powerful and simple tool for identifying secondary structure in both peptides and proteins.^64 All the peptides were subjected to CD analysis in H2O, TFE-H2O mixtures, SDS micelles and phospholipid bicelles. In H2O, a negative band near 200 nm is observed that arises from the π→π* electronic transition and is typical of random coil peptides. […] This behavior is explained as nascent helices.^65 In these nascent helices, helix CD signals could be induced by the addition of TFE.^66 All the glycopeptides gave an increased helix CD signal in TFE. The percentage of helicity increases as TFE concentration increases, but reached a maximum at 30% TFE. The increase in helicity in TFE can be attributed to decreased competition by H2O for hydrogen bonding to the backbone amides. […] In the presence of SDS micelles and anionic bicelles, the band at 200 nm underwent a red shift (higher value) and an additional shoulder appears around 222 nm as a result of the n→π* transition. […] The negative maxima at 222 nm (n→π* transition band) is used to calculate the helical content of polypeptides and proteins. The accepted value for a peptide that is 100% helical is approximately −35,000. It was observed that changes in amplitude of the bands up to 30% depend on length of helix.^67 The amplitude increases as α-helical chain length increases. Therefore, one has to consider the importance of chain-length dependence of the α-helix CD in the quantitative treatment of helix content in proteins and polypeptides. The percentage of helicity is independent of SDS concentration and pH (data not shown). In the presence of zwitterionic bicelles all of the glycopeptides yielded CD spectra similar to that observed in H2O, but anionic bicelles forced them to become more helical. The intensities of the [θ]π→π* band and the [θ]n→π* band are expected to be almost equal for a perfect α-helical peptide. […] A modest blue shift and reduced intensity for the [θ]n→π* transition bands are observed for all the glycopeptides in TFE. […] The glycopeptides 9 (Pro/Glc) and 12 (Pro/Lactose), which differ only by the sugar moiety attached, adopt perfect helices in the presence of SDS micelles and in anionic bicelles. The disaccharide increased the percentage of helicity in all the solvents, relative to the monosaccharide. […] It is remarkable to note that a single amino acid mutation at position 6 produced profound changes in the CD spectra. […]
For orientation: Circular dichroism is the unequal absorption of left and right circularly polarised light.

Data set [2] is described as follows: in vivo antinociception after i.c.v. administration. Also noted: species or system mice. As to conditions: i.c.v., mice; for A50 i.c.v.: antinociception.
The next data set addresses μ opioid receptor (Homo sapiens, UniProt P35372). Nature of the data set: opioid receptor binding, μ receptor.
Data set [3] in a line: helicity by NMR αCH chemical shift index. The format is physicochemical. The procedure:
NMR Spectroscopy. All NMR spectra were recorded on a Bruker DRX600 600 MHz spectrometer. Glycopeptide concentration for the NMR experiments varied from 2-3 mM. The glycopeptides were prepared in TFE-water solution by dissolving the peptide in 0.6 ml solution of a premixed 30% TFE-water mixture. The micelle samples were prepared by dissolving the glycopeptide and 100 equivalent of perdeuterated SDS in 0.6 ml of H2O/D2O (9:1 ratio by volume). Bicelles were produced from deuterated phospholipids. The zwitterionic bicelles were made by mixing the short chain phospholipid dihexanoyl-sn-glycero-3-phosphatidylcholine-d22 (DHPC) and the long chain 1,2-dimyristoyl-sn-glycero-3-phosphatidylcholine-d54 (DMPC) in the molar ratio of 2:1 in H2O. The […] were prepared by substituting 10 mol % of 1,2-dimyristoyl-sn-glycero-3-phospho-1-glycerol-d54 (DMPG) for DMPC. The glycopeptide to bicelle ratio was 1:25. After the glycopeptide was added to the bicelle solution, the system was submitted to a series o f three freeze/thaw/slight vortex shaking cycles. The pH of the each sample was adjusted to 4.5 by using DCl or NaOD as necessary. TSP (3-(trimethylsilyl)-d4-propionic acid) was added as an internal standard. The experiments in F3CCD2OD/H2O mixtures were at 293 K and for experiments in micelles/bicelles were at 298 or 311 K. Two-dimensional double quantum filtered correlation (DQF-COSY), rotating-frame Overhauser enhancement^56 (ROESY), Nuclear Overhauser enhancement^57 (NOESY), and total correlation spectra^58 (TOCSY) were acquired using standard pulse sequences and processed using XWINNMR (Bruker Inc) and FELIX2000 (Accelrys Inc, San Diego, Calif.), Mixing times for TOCSY spectra were either 80 or 100 ms. Mixing times for ROESY spectra were 150 or 250 ms, and for NOESY spectra were 200 or 300 ms. All experiments were 750 increments in t1, 16/32/64 scans each, 1.5 s relaxation delay, size 2 or 4K, and the spectral processing was with shifted sine bell window multiplications in both dimensions.
αCH Chemical Shift Index. […] At this point there is no accepted random coil αCH values for glycosylated serine, CSI values for this position are uncertain. The conformational shift values for all solvents were obtained using the random coil values described by Wright and co-workers.^72 Although, these reference shifts were obtained at pH=5.0 at 4.2° C., they appear to be very insensitive to the conditions, as very small deviations (±0.04) were observed when random coil values are obtained at pH=7.0 at 35° C. by Wuthrich and co-workers.^68 The quantification of secondary structure based on αCH chemical shifts is neglected in the literature because various contributions cannot be strictly accounted for, such as electrostatic effects, ring current shifts, and other magnetic anisotropies. However, it is possible to make qualitative comparison of helical content between closely related (glyco)peptides. Since the 3rd generation glycopeptides differ by only one amino acid at position 6, the helical content was obtained based on the αCH chemical shift values (Table 3). The method described by Gierasch and co-workers^69a was used. First, the average conformational shift was calculated for each glycopeptide by adding all upfield shifts in the helical regions and dividing by the total number of peptide bonds. Then, to obtain the overall helical content for each glycopeptide, the average conformational shift was divided by 0.35 ppm, which was assigned for 100% helicity. Since, there are no random coil values available for β-Alanine and glycosylated serine residues, they were not included in the calculation. The helicogenic Aib residue lacks an α-proton, and there was no correction included in the calculation for the helicity provided by Aib residue. The helical content obtained by this method correlated with the helical content obtained by CD. […]

Another data set has as its target mu opioid receptor. Kind of data set: opioid receptor assay, format not described (Table 1, µ IC50).
A further data set concerns the target delta opioid receptor. Nature of the data set: opioid receptor assay, format not described (Table 1, δ IC50).

Non-standard residues stand in square brackets, D forms with d. No end group written: not given here. *: point of attachment. βGlc = OC[C@H]1O[C@@H](*)[C@H](O)[C@@H](O)[C@@H]1O; Aib = CC(C)(N)C(=O)O; βAla = NCCC(=O)O Where only a bound is given, the exact number is not on record here.

mu opioid receptor, sequence (P35372 whole entry): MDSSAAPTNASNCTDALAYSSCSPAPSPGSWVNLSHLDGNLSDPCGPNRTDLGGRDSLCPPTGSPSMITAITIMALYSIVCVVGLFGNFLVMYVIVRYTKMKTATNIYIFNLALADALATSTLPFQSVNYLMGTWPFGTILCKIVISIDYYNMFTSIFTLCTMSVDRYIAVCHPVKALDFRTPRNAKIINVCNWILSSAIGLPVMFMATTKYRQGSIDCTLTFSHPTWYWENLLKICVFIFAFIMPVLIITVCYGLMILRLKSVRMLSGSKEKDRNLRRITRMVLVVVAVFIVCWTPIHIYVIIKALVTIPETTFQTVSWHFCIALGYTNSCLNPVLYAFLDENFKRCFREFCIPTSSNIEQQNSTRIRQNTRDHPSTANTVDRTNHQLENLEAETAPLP
δ opioid receptor, sequence (P41143 whole entry): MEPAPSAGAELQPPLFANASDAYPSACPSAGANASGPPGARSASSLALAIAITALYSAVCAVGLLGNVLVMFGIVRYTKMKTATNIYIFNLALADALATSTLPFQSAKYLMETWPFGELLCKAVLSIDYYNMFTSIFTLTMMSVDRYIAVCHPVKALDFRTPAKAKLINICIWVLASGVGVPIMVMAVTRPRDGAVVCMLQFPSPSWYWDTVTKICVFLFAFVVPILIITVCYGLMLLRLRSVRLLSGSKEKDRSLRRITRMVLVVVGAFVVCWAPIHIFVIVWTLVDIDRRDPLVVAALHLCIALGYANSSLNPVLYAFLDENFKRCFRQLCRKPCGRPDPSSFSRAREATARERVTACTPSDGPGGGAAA
μ opioid receptor, sequence (P35372 whole entry): as the sequence (P35372 whole entry) above

The term IC50 denotes the midpoint of a concentration-inhibition curve. Lower therefore signals higher potency. In the case of `CC(C)C[C@H](NC(=O)CNC(=O)[C@H](CC(C)C)NC(=O)[C@H](Cc1ccccc1)NC(=O)CNC(=O)[C@H](NC(=O)[C@@H](N)Cc1ccc(O)cc1)[C@H](C)O)C(=O)N[C@@H](CC(C)C)C(=O)N[C@@H](CCCCN)C(=O)N[C@@H](CO[C@@H]1O[C@H](CO)[C@@H](O)[C@H](O)[C@H]1O)C(=O)N[C@@H](Cc1ccccc1)C(=O)N[C@@H](C)C(=O)N[C@@H](CCC(=O)O)C(=O)N[C@@H](CO[C@@H]1O[C@H](CO)[C@@H](O)[C@H](O)[C@H]1O)C(=O)N[C@@H](Cc1c[nH]c2ccccc12)C(=O)N[C@@H](CO[C@@H]1O[C@H](CO)[C@@H](O)[C@H](O)[C@H]1O)C(=O)N[C@@H](CC(N)=O)C(=O)N[C@@H](Cc1ccccc1)C(N)=O` (relative stereo) [Glycopeptide 6, YtGFLGLLKS*FAES*WS*NF], the IC50 was determined as 11.9 nM on δ opioid receptor and 154 nM on μ opioid receptor. Further, the “% α-helicity” value in data set [1] is reported as 37%. The A50 i.c.v. in data set [2] was determined as 0.028 nmol.
The matching figures for `CC(C)C[C@H](NC(=O)[C@H](Cc1ccccc1)NC(=O)CNC(=O)[C@H](NC(=O)[C@@H](N)Cc1ccc(O)cc1)[C@H](C)O)C(=O)NCC(=O)N[C@@H](CCCCN)C(=O)N[C@@H](CO[C@@H]1O[C@H](CO)[C@@H](O)[C@H](O)[C@H]1O)C(=O)N[C@@H](Cc1ccccc1)C(=O)N[C@@H](C)C(=O)N[C@@H](CCC(=O)O)C(=O)N[C@@H](CC(C)C)C(=O)N[C@@H](Cc1c[nH]c2ccccc12)C(=O)N[C@@H](CO[C@@H]1O[C@H](CO)[C@@H](O)[C@H](O)[C@H]1O)C(=O)N[C@@H](CC(N)=O)C(=O)N[C@@H](Cc1ccccc1)C(=O)N[C@@H](CC(C)C)C(=O)N[C@@H](CO[C@@H]1O[C@H](CO)[C@@H](O)[C@H](O)[C@H]1O)C(N)=O` (relative stereo) [Glycopeptide 7, YtGFLGKS*FAELWS*NFLS*]: 25.6 nM, 38.2 nM, 15% and 0.096 nmol.
For YtGFLGALKS*FAES*LS*NA [Glycopeptide 5], the “% α-helicity” value in data set [1] was found to be 58%.
YtGFLGLLKS*FWES*WS*NF [Glycopeptide 8]: the “% α-helicity” value in data set [1] is listed as 39%. In data set [2] (within 2nd generation series), the “in vivo potency and duration of action (in words)” value is given as “lowest potency in vivo, but longest duration of action”.
Regarding YtGFLPNLBEKALKS**L [Glycopeptide 12], the “% α-helicity by NMR” value in data set [3] (solvent H2O) stood at 22%; in data set [3] (solvent SDS micelles), 29%; in data set [3] (solvent TFE) it was 34%. The “% α-helicity by CD” value in data set [1] (solvent Bicelle A (anionic bicelles)) was 33%; in data set [1] (solvent H2O) it was greater than 1%; in data set [1] (solvent SDS micelles), 33%; in data set [1] (solvent TFE), 23%.
For Y[dT]GFL[βAla]NL[Aib]EKALKS(βGlc)L-NH2 [Glycopeptide 10 (YtGFLβANLBEKALKS*L)], the results for the IC50 in the data set with mu opioid receptor and in the data set with delta opioid receptor were 153 nM and 109 nM, respectively.
The like results for Y[dT]GFLGELAS(βGlc)KWFNALES(βGlc)-NH2 [Glycopeptide 2 (YtGFLGELAS*KWFNALES*)] were, in that order, 144 nM and 9.5 nM.
The matching figures for Y[dT]GFLGKS(βGlc)FAELWS(βGlc)NFLS(βGlc)-NH2 [Glycopeptide 7 (YtGFLGKS*FAELWS*NFLS*)]: 38.2 nM and 25.6 nM.
The matching figures for Y[dT]GFLGGNL[Aib]EKALKS(βGlc)L-NH2 [Glycopeptide 11 (YtGFLGGNLBEKALKS*L)]: 53 nM and 32.5 nM.
Consider Y[dT]GFLGLLKS(βGlc)FAES(βGlc)WS(βGlc)NF-NH2 [Glycopeptide 6 (YtGFLGLLKS*FAES*WS*NF)], for which the IC50 came to 154 nM with mu opioid receptor and 11.9 nM with delta opioid receptor.
The matching figures for Y[dT]GFLPNL[Aib]EKALKS(βGlc)L-NH2 [Glycopeptide 9 (YtGFLPNLBEKALKS*L)]: 90.8 nM and 6.15 nM.
